The values that follow come from the NIST ThermoML archive (doi:10.1021/acs.jced.8b00333).

For data set [1] the following is noted: Crystal; DTA.
The nature of data set [2]: Molar enthalpy of transition or fusion. To be noted: Crystal; DSC.

Numbers after ± are expanded uncertainties.

Regarding `CCOC(=O)[C@H](CCc1ccccc1)N[C@@H](C)C(=O)O` [((S)-1-ethoxy-1-oxo-4-phenylbutan-2-yl)-L-alanine], the Normal melting temperature in data set [1] worked out at 153.36 ± 1.1 °C. Further, the “Molar enthalpy of transition or fusion” value in data set [2] was found to be 13.9 ± 0.335 kcal/mol.
